Reference: patent US11684571B2, “Methods of treating eosinophilic esophagitis” (Ellodi Pharmaceuticals, L.P., priority 2016, dated 2023)

Tests used:
[1] = in vivo
Procedure: Incidence of treatment-emergent Adverse Events (AEs), AEs leading to withdrawal, and Serious Adverse Events (SAEs) grouped by system organ class (SOC) were calculated as needed. Clinically significant abnormal values for clinical laboratory, AM cortisol (≤138 nmol/L), urinalysis, vital signs, and electrocardiogram (ECG) findings were measured as needed.
A total of 24 subjects were enrolled and randomized to one of six sequences to receive each of the three treatments over the three periods with a 7-day washout between doses.
C. […] These subjects continued fasting for at least 4 hours post-dose. • Subjects on the “Fed” treatment (Treatment B) began a high-fat breakfast 30 minutes after an overnight fast of at least 10 hours. […] Subjects were administered 6.0 mg of ATP-1011 immediately prior to bedtime (4 hours following the standard meal).
Randomization (Day 1): Subjects were randomized to one of six sequences (See Table 15) to receive a single dose of each treatment over three periods, with a 7-day washout between doses.
Treatment Periods: For each period, subjects were in-patients for 5 days (Days 0-4, Days 7-11, Days 14-18) with PK samples collected over 72 hours following each dose. Subjects were checked-in to the CRU the evening prior to each dosing (Day 0, 7, and 14) and received treatment according to the sequence on which they were randomized on Day 1. […] All meals (AM and 4 hours prior to bedtime) were standardized for all subjects and all periods. Subjects completed these meals within 30 minutes. […] Subjects dosed HS followed the same PK schedule with PK samples scheduled relative to the bedtime dose.
Pharmacokinetics: Derived plasma-PK-parameter descriptive statistics were summarized by treatment. […] Additional comparisons were assessed between HS dosing and Fed and Fasted administration.
The following PK parameters were estimated by noncompartmental methods from plasma samples. Below limit of quantitation concentrations were treated as zero for all PK analyses. All deviations from the scheduled sampling time of 2 minutes or more were taken into consideration for evaluation of the PK parameters.
The trapezoidal rule was used to estimate the area under the curve (linear trapezoidal linear interpolation) and the terminal phase were estimated by maximizing the coefficient of determination estimated from the log-linear regression model. However, disposition parameters were not estimated for individual concentration-time profiles where the terminal log-linear phase cannot be reliably characterized.
Food Effect Analysis: The 90% confidence interval for the exponential of the difference in LSmeans between B (fed) and A (fasted) was calculated for the ln-transformed parameters (Test to Reference ratio of geometric LSmeans).
HS vs Fasted Analysis: The 90% confidence interval for the exponential of the difference in LSmeans between C (HS) and A (fasted) was calculated for the ln-transformed parameters (Test to Reference ratio of geometric LSmeans).
HS vs Fed Analysis: The 90% confidence interval for the exponential of the difference in LSmeans between C (HS) and B (fed) was calculated for the ln-transformed parameters (Test to Reference ratio of geometric LSmeans).
Treatments Administered: Study drug was administered by qualified study staff only in accordance with the procedures described in this protocol. […] All subjects were instructed to take the study drug tablet orally without water or other liquids. […]

[2] = Previous PK studies of APT-1011 (food effect, QD vs BID); assay type: in vivo, human; conditions: single-dose administration
[3] = oral; cited from earlier work

- AUC0-24, geometric LSmean ([1]; human, 6 mg): 0.367351 ng·h/mL
- AUCinf, geometric LSmean ([1]; human, 6 mg): 0.915302 ng·h/mL
- AUClast, geometric LSmean ([1]; human, 6 mg): 0.789234 ng·h/mL
- Cmax, geometric LSmean ([1]; human, 6 mg): 0.0313 ng/mL
- maximum peak exposure, lower than morning-fast [1]: 19%
- between-subject variability (CV % Geo mean) of FP AUC(0-24h) [2]: > 55%
Structure (SMILES): CCC(=O)O[C@]1(C(=O)SCF)[C@H](C)C[C@H]2[C@@H]3C[C@H](F)C4=CC(=O)C=C[C@]4(C)[C@@]3(F)[C@@H](O)C[C@@]21C [FP, Fluticasone propionate]
- expected systemic bioavailability [3]: ~1%
